# Measurements published in US10570108B2, “Substituted benzofuran compounds for the treatment of hepatitis C” (BRISTOL-MYERS SQUIBB COMPANY, priority 2015, dated 2020).
# Tests used:
# HCV replicon = HCV replicon luciferase assay; format: cell-based; details: Hepatitis C virus, Huh-7, 72 h
# Experimental: Cell lines. The cell lines used to evaluate compounds consist of a human hepatocyte derived cell line (Huh-7) that constitutively expresses a genotype 1b (Con-1) HCV replicon or a genotype 1b (Con-1) HCV replicon with an asparagine replacing the cysteine at amino acid 316, or a genotype 2a (JFH-1) replicon, containing a Renilla luciferase reporter gene. These cells were maintained in Dulbecco's modified Eagle medium (DMEM) containing 10% FBS, 100 U/mL penicillin/streptomycin and 1.0 mg/mL G418.
# HCV replicon luciferase assay. To evaluate compound efficacy, titrated compounds were transferred to sterile 384-well tissue culture treated plates, and the plates were seeded with HCV replicon cells (50 μL at a density of 2.4×10^3 cells/well) in DMEM containing 4% FBS (final DMSO concentration at 0.5%). After 3 days incubation at 37° C., cells were analyzed for Renilla Luciferase activity using the EnduRen substrate (Promega cat #E6485) according to the manufacturer's directions. Briefly, the EnduRen substrate was diluted in DMEM and then added to the plates to a final concentration of 7.5 μM. The plates were incubated for at least 1 h at 37° C. then read on a Viewlux Imager (PerkinElmer) using a luminescence program. The 50% effective concentration (EC50) was calculated using the four-parameter logistic formula noted above.
# HCV = details: cited from earlier work
SMILES,EC50 (HCV replicon) [µM],hepatic toxicity (HCV; extended dosing of the combination regimens),HCV RNA levels in patients (HCV; single agent or combined with interferon and ribavirin)
CCNc1cc2oc(-c3ccc(F)cc3)c(C(=O)NC)c2cc1-c1cccc(C(=O)NC2CCNC2=O)c1 (stereo not drawn) [Compound 4001],0.0588,,
CCNc1cc2oc(-c3ccc(F)cc3)c(C(=O)NC)c2cc1-c1cccc(C(=O)NCC(C)(C)C#N)c1 [Compound 4002],< 0.1,,
C#CC1(NC(=O)c2cccc(-c3cc4c(C(=O)NC)c(-c5ccc(F)cc5)oc4cc3NCC)c2)CCCCC1 [Compound 4003],< 0.1,,
CCNc1cc2oc(-c3ccc(F)cc3)c(C(=O)NC)c2cc1-c1cccc(C(=O)NC2(C#N)CCN(Cc3ccccc3)CC2)c1 [Compound 4004],< 0.1,,
C#CC1(NC(=O)c2cccc(-c3cc4c(C(=O)NC)c(-c5ccc(F)cc5)oc4cc3N(CC)S(C)(=O)=O)c2)CCCCC1 [Compound 5001],< 0.1,,
CCN(c1cc2oc(-c3ccc(F)cc3)c(C(=O)NC)c2cc1-c1cccc(C(=O)NC2(C(F)(F)F)CCCC2)c1)S(C)(=O)=O [Compound 5002],0.007,,
CCN(c1cc2oc(-c3ccc(F)cc3)c(C(=O)NC)c2cc1-c1cccc(C(=O)N[C@@H]2CCNC2=O)c1)S(C)(=O)=O [Compound 5003],0.1 to 1,,
CCN(c1cc2oc(-c3ccc(F)cc3)c(C(=O)NC)c2cc1-c1cccc(C(=O)N[C@H]2CCNC2=O)c1)S(C)(=O)=O [Compound 5004],0.1 to 1,,
CCN(c1cc2oc(-c3ccc(F)cc3)c(C(=O)NC)c2cc1-c1cccc(C(=O)NC2(C#N)CCN(C(=O)OC(C)(C)C)CC2)c1)S(C)(=O)=O [Compound 5005],< 0.1,,
CCN(c1cc2oc(-c3ccc(F)cc3)c(C(=O)NC)c2cc1-c1cccc(C(=O)NC2(C#N)CCc3cc(OC)ccc3C2)c1)S(C)(=O)=O (stereo not drawn) [Compound 5006],< 0.1,,
CCN(c1cc2oc(-c3ccc(F)cc3)c(C(=O)NC)c2cc1-c1cccc(C(=O)NC2(C#N)CCOCC2)c1)S(C)(=O)=O [Compound 5007],0.0042,,
CNC(=O)c1c(-c2ccc(F)cc2)oc2cc(N(CC3CC3)S(C)(=O)=O)c(-c3cccc(C(=O)NC(C)(C)C=O)c3)cc12 [Compound 6001],< 0.1,,
CNC(=O)c1c(-c2ccc(F)cc2)oc2cc(N(CCF)S(C)(=O)=O)c(-c3cccc(C(=O)NCC4CCCC4NC(=O)OC(C)(C)C)c3)cc12 (stereo not drawn) [Compound 7001],< 0.1,,
CNC(=O)c1c(-c2ccc(F)cc2)oc2cc(N(CCO)S(C)(=O)=O)c(C3CC3)cc12 [HCV-796],,hepatic toxicity observed,reduce HCV RNA levels
